# Results: PubChem BioAssay (NCI)
#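 In this assay, cells in 96-well plates receive the compound at five concentrations for 48 hours. Endpoints are linearly interpolated between the surrounding concentrations. TGI denotes the concentration required for complete inhibition of growth.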
# Legend:
# Assay in all cases: NCI anticancer screen, dose series, 48 h
# K-562 leukemia = tested on: K-562 leukemia
# CAKI-1 renal = tested on: CAKI-1 renal
# DLD-1 colon = tested on: DLD-1 colon
# DMS 273 small cell lung = tested on: DMS 273 small cell lung
# NCI-H226 lung = tested on: NCI-H226 lung
# OVCAR-3 ovarian = tested on: OVCAR-3 ovarian
# OVCAR-5 ovarian = tested on: OVCAR-5 ovarian
# IGROV1 ovarian = tested on: IGROV1 ovarian
# HOP-62 NSCLC = tested on: HOP-62 NSCLC
# OVCAR-8 ovarian = tested on: OVCAR-8 ovarian
# XF 498 CNS = tested on: XF 498 CNS
# OVCAR-4 ovarian = tested on: OVCAR-4 ovarian
# SN12C renal = tested on: SN12C renal
# RPMI-8226 leukemia = tested on: RPMI-8226 leukemia
# COLO 205 colon = tested on: COLO 205 colon
# NCI-H522 lung = tested on: NCI-H522 lung
# HCT-15 colon = tested on: HCT-15 colon
# LOX IMVI melanoma = tested on: LOX IMVI melanoma
# M14 melanoma = tested on: M14 melanoma
# NCI-H460 lung = tested on: NCI-H460 lung
# RXF 393 renal = tested on: RXF 393 renal
# KM12 colon = tested on: KM12 colon
# SK-MEL-28 melanoma = tested on: SK-MEL-28 melanoma
# SK-OV-3 ovarian = tested on: SK-OV-3 ovarian
# MALME-3M melanoma = tested on: MALME-3M melanoma
# SK-MEL-2 melanoma = tested on: SK-MEL-2 melanoma
# LXFL 529 NSCLC = tested on: LXFL 529 NSCLC
# TK-10 renal = tested on: TK-10 renal
# SF-268 CNS = tested on: SF-268 CNS
# KM20L2 colon = tested on: KM20L2 colon
# UACC-62 melanoma = tested on: UACC-62 melanoma
# SNB-75 CNS = tested on: SNB-75 CNS
# CCRF-CEM leukemia = tested on: CCRF-CEM leukemia
# HT29 colon = tested on: HT29 colon
# HCC-2998 colon = tested on: HCC-2998 colon
# 786-0 renal = tested on: 786-0 renal
# HL-60(TB) leukemia = tested on: HL-60(TB) leukemia
# UACC-257 melanoma = tested on: UACC-257 melanoma
# SF-295 CNS = tested on: SF-295 CNS
# MOLT-4 leukemia = tested on: MOLT-4 leukemia
# SF-539 CNS = tested on: SF-539 CNS
# UO-31 renal = tested on: UO-31 renal
# M19-MEL melanoma = tested on: M19-MEL melanoma
# SNB-19 CNS = tested on: SNB-19 CNS
# ACHN renal = tested on: ACHN renal
# SW-620 colon = tested on: SW-620 colon
# NCI-H23 lung = tested on: NCI-H23 lung
# EKVX NSCLC = tested on: EKVX NSCLC
# HOP-18 NSCLC = tested on: HOP-18 NSCLC
# A549 NSCLC = tested on: A549 NSCLC
# SK-MEL-5 melanoma = tested on: SK-MEL-5 melanoma
smiles,measurement,setting,value
O=S1c2ccccc2NC(c2ccc3ccccc3c2)CC1c1ccccc1 (stereo unspecified),TGI,K-562 leukemia,37.5 µM
same,TGI,CAKI-1 renal,79 µM
same,TGI,DLD-1 colon,70.1 µM
same,TGI,DMS 273 small cell lung,91.6 µM
same,TGI,NCI-H226 lung,48.9 µM
same,TGI,OVCAR-3 ovarian,35.1 µM
same,TGI,OVCAR-5 ovarian,> 100 µM
same,TGI,IGROV1 ovarian,40.5 µM
same,TGI,HOP-62 NSCLC,> 100 µM
same,TGI,OVCAR-8 ovarian,57 µM
same,TGI,XF 498 CNS,52.8 µM
same,TGI,OVCAR-4 ovarian,53.9 µM
same,TGI,SN12C renal,> 100 µM
same,TGI,RPMI-8226 leukemia,60.8 µM
same,TGI,COLO 205 colon,74.4 µM
same,TGI,NCI-H522 lung,42.4 µM
same,TGI,HCT-15 colon,54 µM
same,TGI,LOX IMVI melanoma,33.7 µM
same,TGI,M14 melanoma,> 100 µM
same,TGI,NCI-H460 lung,47.1 µM
same,TGI,RXF 393 renal,30.5 µM
same,TGI,KM12 colon,41.7 µM
same,TGI,SK-MEL-28 melanoma,> 100 µM
same,TGI,SK-OV-3 ovarian,> 100 µM
same,TGI,MALME-3M melanoma,> 100 µM
same,TGI,SK-MEL-2 melanoma,> 100 µM
same,TGI,LXFL 529 NSCLC,30.5 µM
same,TGI,TK-10 renal,> 100 µM
same,TGI,SF-268 CNS,> 100 µM
same,TGI,KM20L2 colon,48.9 µM
same,TGI,UACC-62 melanoma,> 100 µM
same,TGI,SNB-75 CNS,86.6 µM
same,TGI,CCRF-CEM leukemia,38 µM
same,TGI,HT29 colon,49.6 µM
same,TGI,HCC-2998 colon,36 µM
same,TGI,786-0 renal,31.1 µM
same,TGI,HL-60(TB) leukemia,55.3 µM
same,TGI,UACC-257 melanoma,> 100 µM
same,TGI,SF-295 CNS,55 µM
same,TGI,MOLT-4 leukemia,70.3 µM
same,TGI,SF-539 CNS,41.1 µM
same,TGI,UO-31 renal,47.9 µM
same,TGI,M19-MEL melanoma,43.3 µM
same,TGI,SNB-19 CNS,> 100 µM
same,TGI,ACHN renal,52.2 µM
same,TGI,SW-620 colon,42.7 µM
same,TGI,NCI-H23 lung,40.1 µM
same,TGI,EKVX NSCLC,63.9 µM
same,TGI,HOP-18 NSCLC,> 100 µM
same,TGI,A549 NSCLC,> 100 µM
same,TGI,SK-MEL-5 melanoma,37.9 µM
